Data reported in a melting point compilation (Tetko et al.; mined from patent text by program, amines drawn as free bases though some values may be those of a salt).

Row | melting point | SMILES
1 | 188 to 191 °C | O=C1NC(=O)C(Cc2ccc(OCC34CC5CC(CC(C5)C3)C4)cc2)S1 (configuration not stated)
2 | 179 to 182 °C | O=[N+]([O-])c1cnn2ccccc12
3 | 157 to 158 °C | O=c1c2ccccc2oc2cc(OCC3CO3)ccc12 (configuration not stated)
4 | 183 to 185 °C | O=C(NCCCCCCNC(=O)c1ccc2c(c1)OCO2)c1ccc2c(c1)OCO2
5 | 138 to 139 °C | CS(=O)Cc1nnc(-c2ccc3occ(-c4cccc(OC(F)(F)F)c4)c3c2)o1 (configuration not stated)
6 | 159 °C | O=S(=O)(NCc1ccncc1)c1ccc(Br)s1
7 | 162 to 164 °C | NC(=O)CCCCn1cnc(NC(N)=NCC(F)(F)F)n1
8 | 171 to 172 °C | Cn1c(-c2ccccc2)c(C2=CCC(C(=O)O)CC2)c2ccccc21 (configuration not stated)
9 | 141 to 143 °C | CCc1nc(CO)n(CC)c1Sc1cc(C#N)cc(C#N)c1
10 | 260 to 265 °C | O=C(O)C1=Cc2cc(O)ccc2S(=O)(=O)CC1
11 | 140 to 141 °C | CCOCCOC(=O)C(=O)Nc1nc(-c2cc(OC)ccc2OC)cs1
12 | 72 to 73 °C | Cc1ccsc1-c1nc(COc2ccc(CCCn3ccnc3)cc2)co1
13 | 237 to 238 °C | COC(=O)c1ccc(-c2nnc(-c3ccc(C(F)(F)F)cc3)o2)c(N)c1
14 | 118 to 120 °C | O[C@@H](COc1cccc(-c2noc3ccsc23)c1)CN1CCN(c2cccc(Cl)c2)CC1
15 | 150 to 152 °C | O=C(C=Cc1ccncc1)c1cccs1
16 | 144 to 146 °C | CCC(CC)(c1ccccc1F)c1c[nH]c2c(NS(C)(=O)=O)cccc12
17 | 77 to 78 °C | CCCc1c(OCC2Cc3cc(CC(=O)OC)ccc3O2)ccc(C(C)=O)c1O (configuration not stated)
18 | 176 to 177 °C | CCCN(CCc1ccccc1)CCc1cccc2[nH]c(=O)[nH]c12
19 | 159 to 160 °C | CCOC(=O)c1c(SCc2ccc(OC)cc2)c(CC)c2cc(Cl)ccn2c1=O
20 | 178 to 180 °C | C1=CC2=NCCN2C=C1
21 | 247 to 248 °C | Nc1ccc(C(=O)NC2CCN(CCCn3cnc4c(N)ncnc43)CC2)cc1
22 | 193 °C | CCCCc1nc2c(N)nc3ccccc3c2n1CCCNC(=O)OC(C)(C)C
23 | 290 °C | CCCC1CCC(C2CCC3(CC2)C(=O)C2(CCC(C4CCC(CCC)CC4)CC2)C3=O)CC1 (configuration not stated)
24 | 158 to 160 °C | CCC1(CC)c2cc(I)ccc2-c2ccc(-c3nc4ccccc4s3)cc21
25 | 263 to 264 °C | c1ccc(Nc2ncnc3[nH]nc(Nc4ccccc4)c23)cc1

Row | melting point | SMILES
26 | 164 to 174 °C | Cc1c(Cc2cccc3ccccc23)c(=O)oc2cc(OCc3nnn[nH]3)cc(OCc3nnn[nH]3)c12
27 | 86 °C | COC(=O)N(C)NC(=O)Oc1ccccc1
28 | 84 to 85 °C | CSCc1nnc(-c2ccc3occ(-c4cccc(OC(F)(F)F)c4)c3c2)o1
29 | 176 to 177 °C | COCCCOc1cc(N(C)S(=O)(=O)c2ccccn2)c2[nH]c(C3=NCC(CN4CCS(=O)CC4)S3)cc2c1 (configuration not stated)
30 | 161 °C | CCc1cn2ccccc2c1S(=O)(=O)c1cc(C)c(OS(=O)(=O)c2ccc(C)cc2)c(C)c1
31 | 144 to 146 °C | COc1cn2nc(OCCCN3CCN(C(c4ccccc4)c4ccccc4)CC3)ccc2n1
32 | 107 to 109 °C | Cc1ccc(-c2ccc(C#N)cc2)cc1
33 | 172 to 174 °C | COc1ccc(-c2nc(-c3ccccc3Cl)sc2-c2ccc(S(C)(=O)=O)cc2)cc1
34 | 94 to 95 °C | CCOC(=O)c1c2ccc(Cl)cc2c(-c2ccccc2)n1CCCC(C)=O
35 | 158 to 161 °C | Nc1ccc(C(=O)Nc2ccccc2C(c2ccc(O)cc2)c2ccc(O)cc2)cc1
36 | 85 to 86.5 °C | O=C(O)c1ccccc1OCC(F)(F)F
37 | 161 °C | O=C(O)CCCc1cc2nc(C(F)(F)F)ccc2n1S(=O)(=O)c1ccc2c(c1)OCO2
38 | > 200 °C | CC(C)(C)OC(=O)N1CC(CCl)c2c1cc(N)c1ccccc21 (configuration not stated)
39 | 120 to 122 °C | COc1cccc2cc(SCCC(=O)O)n(C)c12
40 | 56 to 57 °C | OCCOc1cccc2c1OCO2
41 | 72 to 73 °C | CC(Br)c1ccc(-n2nccn2)cn1 (configuration not stated)
42 | 80 to 83 °C | CC(C)(C)[Si](C)(C)Oc1ccc(N)c([N+](=O)[O-])c1
43 | 103 to 107 °C | Cc1cc(SC2=C(O)CC(CCc3cc(Cl)c(N)c(Cl)c3)(C(C)C)OC2=O)c(C(C)(C)C)cc1N (configuration not stated)
44 | 216 to 218 °C | COc1cc2nc(N3CCN(C(=O)C4CC=CC4)CC3)nc(N)c2cc1OC
45 | 111 to 112 °C | CCOC(=O)c1ccc(CCN(C)CCCC(C#N)(c2ccc(OC)c(OC)c2)C(C)C)cc1 (configuration not stated)
46 | 161 °C | O=c1c2ccccc2sc2cc(OCC3CO3)cc(O)c12 (configuration not stated)
47 | 221 to 222 °C | COC(=O)c1cc(C(=O)NC2CCCC2)c2cc(Cc3ccc(F)cc3)cnc2c1O
48 | 110 to 111 °C | ON1Cc2ccccc2C1=S
49 | 240 to 242 °C | O=c1c(-c2ccccc2O)coc2c(O)c(O)ccc12
50 | 262 to 269 °C | CC12C=CC(=O)CC1CCC1C2CCC2(C)C(C(=O)NC3(C#N)CCCC3)CCC12 (configuration not stated)

Row | melting point | SMILES
51 | 125 to 127 °C | CC(O)Cc1cc2c(cc1C(=NNc1ncccn1)c1ccc([N+](=O)[O-])cc1)OCO2 (configuration not stated)
52 | 67 to 68 °C | Cc1ccc(C(=O)Nc2ccc(CN3CCN(C)CC3)c(C(F)(F)F)c2)cc1C#Cc1ccc(NC(C)C)nn1
53 | 80 to 83 °C | O=C(O)c1ccc(SC(Cn2ccnc2)c2cccnc2)cc1 (configuration not stated)
54 | 245 °C | CS(=O)(=O)N1CCOc2ccc(C3=NNC(=O)CC3)cc21
55 | 130 to 132 °C | O=C1[C@H]2CCC[C@H]2N(C(=O)CBr)c2ccccc2N1CCCc1ccccc1 (relative stereo)
56 | 59 to 62 °C | CC(CN(O)C(N)=O)OCc1ccco1 (configuration not stated)
57 | 100 to 101 °C | COc1nc(C)n2nc(S(=O)(=O)Cl)nc2c1Cl
58 | 104 to 105 °C | CCCCCSC1=NC(c2cccc([N+](=O)[O-])c2)C(C(=O)OCC)=C(C)N1 (configuration not stated)
59 | 128 to 129 °C | COC(=O)C(=C(C)NCC(O)CO)c1ncc([N+](=O)[O-])cc1[N+](=O)[O-] (configuration not stated)
60 | 216 to 217 °C | O=c1[nH]c(=O)n(-c2ccccc2)n1-c1ccccc1
61 | 150 to 151 °C | O=[N+]([O-])c1ccc(S(=O)(=O)NCc2ccccc2)c([N+](=O)[O-])c1
62 | 140 to 141 °C | CCOC(=O)c1cc2c(C(F)(F)F)cc(C=O)cc2n1C
63 | 189 to 190 °C | Cn1cnc(COc2nc3c(nnn3-c3ccccc3)c3ccccc23)n1
64 | 238 to 244 °C | CCCC1(CCC)CCCc2c(Nc3ccc(Cl)cc3Cl)nc(C)nc21
65 | 248 to 250 °C | Cn1nc(-c2c(NCc3ccccn3)nc(N)nc2-c2ccccc2)ccc1=O
66 | 212 to 213 °C | CC(=O)ONC(=N)c1ccc(-c2ccc(-c3ccc(C(=N)NOC(C)=O)o3)o2)cc1
67 | 146 to 147 °C | CCCN1CCc2c(cccc2NC(=O)c2ccc(OC)c(OC)c2)C1
68 | 118 to 120 °C | CNC(=O)c1ccc(OCC(O)CNC(C)C)nc1 (configuration not stated)
69 | 124 to 125 °C | CC(C)(C)c1cc(-c2csc(CNC(=O)Cc3ccccc3)n2)cc(C(C)(C)C)c1O
70 | 92 to 98 °C | O=S(=O)(Cl)c1nc2nc(CF)cc(Cl)n2n1
71 | 133 to 135 °C | Cc1ccc(CC2CCN(C(=O)C(=O)O)CC2)cc1
72 | 165 °C | Cc1nc2n(c(=O)c1CCN1CCC(C(=O)c3ccc(F)cc3)CC1)CCCS2
73 | 128 to 131 °C | CCOC(=O)c1ncn(-c2nccs2)c1Cl
74 | 70 to 71 °C | CCOC(=O)c1[nH]c(C)c(C)c1OCC1CO1 (configuration not stated)
75 | 156 to 157 °C | COc1ccc(Oc2ccc(NC(=O)N3CCc4ccccc4CC3)cn2)cc1

Row | melting point | SMILES
76 | 81 to 85 °C | COc1ccc2ccc(S(=O)(=O)Cl)cc2c1
77 | 62 °C | CCCCCCCCCCOc1cc(OCCCCCCCCCC)cc(N2CC(=O)OC(=O)C2)c1
78 | 94 to 95 °C | CC1=CC(=O)C(C(C)C)=C(CCNC(=O)C(F)(F)F)C1=O
79 | 146 to 148 °C | Cc1ccccc1C(Oc1cc(OCc2ccsc2)ccc1C#N)C(=O)O (racemic)
80 | 93 °C | COC(=O)C1CCCN1S(=O)(=O)c1ccc(C)cc1 (racemic)
81 | 100 to 102 °C | CCOC(=O)CCNC(=O)CN1CC(=O)N(C)c2ccc(NC(=O)NCc3ccccc3)cc2C1=O
82 | 69.5 to 70.5 °C | CC(O)c1ccc(-c2ccc([N+](=O)[O-])cc2)o1 (configuration not stated)
83 | 126 to 128 °C | CCC(CSC#N)Nc1ccc(Cl)cc1[N+](=O)[O-] (configuration not stated)
84 | 134 to 135 °C | CCOC(=O)CNc1ncccc1NC(=O)c1cccc(F)c1
85 | 185 to 187 °C | CC(=O)c1nc(-c2ccncc2C)[nH]c1C
86 | 63 to 64 °C | O=C1CCC(CCC(=O)OCc2ccc(Cl)cc2)N1 (configuration not stated)
87 | 211 °C | COC(=O)c1ccc(C=CC(=O)N2CCc3c([nH]c4ccccc34)C2c2ccc3c(c2)OCO3)cc1 (configuration not stated)
88 | 139 to 142 °C | CSCCCn1cc(C(Cc2ccccc2Br)=NO)c2ccc(Cl)c(Cl)c21
89 | 124 to 126 °C | CC(C)NC(=O)[C@@H]1CCCN1C(=O)[C@H](C)NC(=O)OCc1ccccc1
90 | 180 °C | COc1ccc(CCN(C)CCc2ccc(NC(=O)c3cccc4c(=O)c5ccccc5[nH]c34)cc2)cc1OC
91 | 130 to 132 °C | c1cc2c(c3c1CCN3)OCCO2
92 | 222 to 223 °C | O=Cc1c[nH]c(=O)c2ccccc12
93 | 125 to 128 °C | CNS(=O)(=O)c1cccc(S(N)(=O)=O)c1
94 | 114 °C | N#Cc1cc(F)c(F)cc1N
95 | 168 to 170 °C | COC(=O)NC[C@H]1CN(c2cc(F)c(N3CCC(n4ncnn4)CC3)c(F)c2)C(=O)O1
96 | 45 to 48 °C | CCCn1cc(C(=O)NCc2ccc(Cl)cc2)c(=O)c2cc(CN(C)C[C@@H](O)c3ccccc3)sc21
97 | 201 to 204 °C | O=C1c2ccccc2-c2c1c1ccccc1c(=O)n2CCO

Row | SMILES | melting point
98 | Clc1ccc(C(C2=NCCN2)c2nccs2)cc1 (configuration not stated) | 145 to 147 °C
99 | C=CCC12CCN=C1C(Br)Cc1ccc(OC)cc12 (configuration not stated) | 112 to 117 °C
100 | O=C(NC1CCCCC1)c1c(O)c2ccccc2n(Cc2ccc(F)cc2)c1=O | 168 °C
101 | CCCCC1(N(C)C)CCC2(CC1)c1[nH]c3ccccc3c1CCN2C(=O)NCC (configuration not stated) | 182 to 184 °C
102 | Cc1ccccc1CC(=NC#N)NC(NC(=O)CF)C(C)(C)C (configuration not stated) | 151 to 152 °C
